Measurements from patent US10045990B2, “ERBB4 inhibitors and methods of use thereof” (Arizona Board of Regents on behalf of Arizona State …, priority 2015, dated 2018).

Tested on: protein-tyrosine kinases from the human genome
Conditions: compared to the control slides (FIG. 9)
Protocol: NAPPA kinase microarrays we generated with virtually all protein-tyrosine kinases from the human genome. The coding sequence for each tyrosine kinase was clone into an expression plasmid and immobilized on the microarray surface, with one protein kinase per feature. After the microarray was expressed, any phosphorylation that occurred during the expression step was removed by a treatment with lambda phosphatase.
Unphosphorylated microarrays were then incubated with a kinase buffer (25 mM Tris-HCl (pH 7.5), 5 mM beta-glycerophosphate, 2 mM dithiothreitol (DTT), 0.1 mM Na3VO4, 10 mM MgCl2) supplemented with […] and/or kinase inhibitors (concentration ranging from 0-10 uM). The kinase autophosphorylation activity was measured through the levels of phosphorylation present in each feature and was detected by phospho-tyrosine antibody. […] Staurosporine is a pan kinase inhibitor used as a control.

CN[C@@H]1C[C@H]2O[C@@](C)([C@@H]1OC)n1c3ccccc3c3c4c(c5c6ccccc6n2c5c31)C(=O)NC4 [Staurosporine]
overall phosphorylation signal of the microarrays: drastically reduce
